Reference: ChEMBL document CHEMBL6177931, “Exploring diverse frontiers: Advancements of bioactive 4-aminoquinoline-based molecular hybrids in targeted therapeutics and beyond” (Eur J Med Chem, 2024)

Columns and labels:
Plasmodium falciparum [1] = assay: Potency index, ratio of chloroquine IC50 to test compound IC50 for antimalarial activity against Plasmodium falciparum Dd2; assay type: functional
Plasmodium falciparum [2] = assay: Antimalarial activity against chloroquine sensitive sorbitol synchronized Plasmodium falciparum 3D7 assessed as inhibition of parasite growth incubated for 72 hrs by HRP2 ELISA based assay; assay type: functional, organism-based; conditions: 3D7, 72 h
Plasmodium falciparum [3] = assay: Antimalarial activity against chloroquine resistant sorbitol synchronized Plasmodium falciparum W2 assessed as inhibition of parasite growth incubated for 72 hrs by HRP2 ELISA based assay; assay type: functional, organism-based; conditions: W2, 72 h
Plasmodium falciparum [4] = assay: Antiplasmodial activity against chloroquine resistant Plasmodium falciparum K1 infected in human erythrocytes incubated for 48 hrs by lactate dehydrogenase assay; assay type: functional, organism-based; conditions: K1, Erythrocyte
Plasmodium falciparum [5] = assay: Antiplasmodial activity against chloroquine sensitive Plasmodium falciparum 3D7 incubated for 72 hrs by SYBR green I based fluorescence assay; assay type: functional, organism-based; conditions: 3D7, 72 h

With `CC(C)Cc1ccc(C(C)C(=O)NCCNc2ccnc3cc(Cl)ccc23)cc1` (stereo not given) as the molecule, how does the “Ratio IC50” value (Plasmodium falciparum [1]) read?
The value was 4.

With `COc1cc(NC(C)CCCN)c2ncccc2c1` (stereo not given) [PRIMAQUINE] as the molecule, how does the IC50 (Plasmodium falciparum [2]) read?
Its IC50 is 1120 nM.

What about the IC50 (Plasmodium falciparum [3]) of the same molecule?
Its IC50 is 182 nM.

How did the EC50 (Plasmodium falciparum [4]) turn out when `CCOC(=O)c1nn(CCNc2ccnc3cc(Cl)ccc23)c2c1C(c1ccc(CC)cc1)C(C#N)=C(N)O2` (stereo not given) was run?
The EC50 was 20 nM.

How did the IC50 (Plasmodium falciparum [5]) turn out when `O=C(Cn1cc(COc2ccc(Br)cc2)nn1)NCCNc1ccnc2cc(Cl)ccc12` was run?
Its IC50 is 40 nM.
